The record followed here is article PMC11858854, “In Vitro and In Vivo Assessment of Pharmacokinetic Profile of Peramivir in the Context of Inhalation Therapy” (Pharmaceuticals, 2025).

Each structure is given as a SMILES string. Some results are limits rather than exact numbers.

Data set [1] is described as follows: Tissue distribution study in rats. In kind it is in vivo. The note with it: rat. Here is the method:
Tissue distribution characteristics were studied following different deliveries of i.v. 3 mg/kg, i.t. 0.3 mg/kg, and i.t. 3 mg/kg in rats. The rats were euthanized at 5 min, 30 min, 1 h, 4 h, 12 h, and 24 h after administration. Blood was collected by puncture of the fundus venous plexus, and bronchoalveolar lavage was performed to obtain bronchoalveolar lavage (BAL) fluid samples, and then the main tissues were obtained by dissection. All the tissues were thoroughly rinsed in ice physiological saline, then weighed and stored at −40 °C for analysis.
Whole blood was placed in EP tubes containing sodium heparin, and plasma was extracted by centrifugation at 4 °C, 5000× g for 10 min. […] Drug concentrations in the samples were determined using the LC-MS/MS method and drug concentrations in the BAL were converted to drug concentrations in epithelial lining fluid (ELF) using the urea nitrogen correction method.
The apparent volume of ELF in BAL fluid was determined by the urea dilution method described by Rennard. The estimated concentration of drugs in ELF was calculated as follows:CELF = CBAL × (UPlasma/UBAL)(1) where CBAL is the measured drug concentration in BAL fluid and UPlasma and UBAL are the measured concentrations of urea nitrogen in plasma and BAL fluid, respectively.
The Kp of each tissue was calculated as follows:Kp = AUC(0–t, tissue)/AUC(0–t, plasma)(2)

A further data set deals with T1, human OCTN2 (Homo sapiens, UniProt O76082).
T1 construct: Huidi Jiang, Zhejiang University; host or cells: MDCK (MDCK-OCTN2); control MDCK-MOCK
T1 sequence (O76082 1-557): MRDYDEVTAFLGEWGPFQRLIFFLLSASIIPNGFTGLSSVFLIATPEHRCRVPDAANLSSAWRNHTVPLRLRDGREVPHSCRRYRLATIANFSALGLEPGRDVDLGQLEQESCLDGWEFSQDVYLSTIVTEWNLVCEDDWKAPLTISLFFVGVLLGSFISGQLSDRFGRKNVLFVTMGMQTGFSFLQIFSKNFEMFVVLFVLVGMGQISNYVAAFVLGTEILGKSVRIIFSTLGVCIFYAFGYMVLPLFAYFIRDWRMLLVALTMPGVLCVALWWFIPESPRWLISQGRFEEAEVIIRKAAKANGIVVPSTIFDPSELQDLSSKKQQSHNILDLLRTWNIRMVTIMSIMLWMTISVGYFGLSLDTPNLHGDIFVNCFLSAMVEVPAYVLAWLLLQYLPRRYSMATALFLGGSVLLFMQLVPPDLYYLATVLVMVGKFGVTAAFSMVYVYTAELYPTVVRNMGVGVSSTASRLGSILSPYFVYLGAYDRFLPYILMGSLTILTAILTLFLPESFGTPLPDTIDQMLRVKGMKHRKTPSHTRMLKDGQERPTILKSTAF
Kind of data set: Uptake study, MDCK cells overexpressing OCTN2. In kind it is in vitro ADME. Here is the method:
All cells (HEK293-MOCK, HEK293-OCT1, HEK293-OCT2, MDCK-MOCK, MDCK-OCTN1, and MDCK-OCTN2) were cultured in DMEM medium supplemented with 10% FBS and PS (100 U/mL), at 37 °C in a humidified 5% CO2 incubator. Cells were seeded on 24-well plates at a density of 1 × 10^4 cells/well. For the uptake assay, the DMEM media were removed, and the cells were washed with pre-warmed Hank’s buffer three times (1 mL/well). Subsequent addition of inhibitor-free/inhibitor-containing buffer was pre-incubated for 30 min at 37 °C prior to the initiation of the uptake experiment. After the pre-incubating buffer was removed, 200 μL of pre-warmed test drugs solution (Hank’s buffer containing 10 µM and 50 µM peramivir) or a mixture of test drugs and inhibitor was added into each well, and the plates were incubated at 37 °C for 5 min. At the end of incubation, cells were washed and lysed as described above. The cell lysate was collected and stored at −40 °C for LC-MS/MS analysis and protein measurement. The negative control (MOCK cells) and positive control were included simultaneously.

In the next data set the test system is Calu-3 cell model. Kind of data set: Bidirectional transport, Calu-3 air-liquid culture model. The note with it: Calu-3, 2 μM, Mean ± SD, n = 3.

`CCC(CC)[C@H](NC(C)=O)[C@@H]1[C@H](O)[C@@H](C(=O)O)C[C@H]1N=C(N)N` [Peramivir]: in data set [1], the “exposure in alveolar epithelial lining fluid after inhalation relative to equivalent i.v. dose” value was “exceeding 370 times”. In data set [1] (intravenous, all tissues except renal and alveolar epithelial lining), the “tissue–plasma partition coefficient, Kp” value is less than 1. Also, the OCTN2 substrate status result on human OCTN2 (MDCK-OCTN2) was “confirming peramivir as a substrate for the OCTN2 transporter”. Also, the “transporter-mediated uptake ratio (UR value)” value on human OCTN2 (MDCK-OCTN2, 50 μM) was determined as 41.62. Also, the “inhibition ratio (IR value)” value on human OCTN2 (MDCK-OCTN2, 50 μM, inhibitor L-carnitine (200 μM)) is given as 65.69%. In the data set with Calu-3 cell model, the “Papp A-B” value is listed as “BLQ” and the “Papp B-A” value was “BLQ”.
